Experiments:
[1] = Oral bioavailability in rat; assay type: ADME, organism-based; conditions: in vivo
Coagulation factor X = Coagulation factor X (Homo sapiens, UniProt P00742); assay: In vitro inhibitory activity against coagulation factor X
Oryctolagus cuniculus [2] = assay: Antithrombotic effect (Inhibition of thrombus formation) in a rabbit deep vein thrombosis model at 1.1 uM plasma concentration following iv administration; assay type: functional
Serine protease 1 = Serine protease 1 (Homo sapiens, UniProt P07477); assay: In vitro inhibitory activity against trypsin
Sequence of Serine protease 1 (P07477 whole entry): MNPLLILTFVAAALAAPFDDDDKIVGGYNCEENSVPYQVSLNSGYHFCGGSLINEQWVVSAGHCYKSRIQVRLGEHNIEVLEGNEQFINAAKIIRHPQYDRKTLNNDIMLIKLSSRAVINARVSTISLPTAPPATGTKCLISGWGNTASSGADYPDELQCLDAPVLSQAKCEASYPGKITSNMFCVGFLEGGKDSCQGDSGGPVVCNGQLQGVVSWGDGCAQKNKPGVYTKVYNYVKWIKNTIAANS

Prothrombin = Prothrombin (Homo sapiens, UniProt P00734); assay: In vitro inhibitory activity against thrombin
Oryctolagus cuniculus [3] = assay: Antithrombotic effect (Inhibition of thrombus formation) in a rabbit deep vein thrombosis model at 0.132 uM plasma concentration following iv administration; assay type: functional

Sequence of Coagulation factor X (P00742 41-179 limits assumed): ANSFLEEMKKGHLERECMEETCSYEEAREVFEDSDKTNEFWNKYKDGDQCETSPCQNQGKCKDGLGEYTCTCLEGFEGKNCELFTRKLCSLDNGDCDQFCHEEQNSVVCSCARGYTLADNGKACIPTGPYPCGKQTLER
Sequence of Coagulation factor X (P00742 235-488 limits assumed): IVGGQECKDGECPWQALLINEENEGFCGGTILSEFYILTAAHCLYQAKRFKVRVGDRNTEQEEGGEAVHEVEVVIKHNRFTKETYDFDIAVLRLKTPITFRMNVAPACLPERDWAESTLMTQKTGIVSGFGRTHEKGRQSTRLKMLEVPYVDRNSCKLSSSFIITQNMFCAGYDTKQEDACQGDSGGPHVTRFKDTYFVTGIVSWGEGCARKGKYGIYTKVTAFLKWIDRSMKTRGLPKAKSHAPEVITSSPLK

SMILES	bioavailability [1]	IC50 (Coagulation factor X)	IC50 (Serine protease 1)	IC50 (Prothrombin)	Inhibition (Oryctolagus cuniculus [2])	Inhibition (Oryctolagus cuniculus [3])
N=C(N)c1cccc(OC(C(=O)Nc2ccc(C(=O)N3CCCC3)cc2)c2ccccc2)c1 (centres undefined)	5%	0.18 nM	174 nM	–	81%	–
N=C(N)c1cccc(OC(C(=O)Nc2ccc(-c3ccccc3S(N)(=O)=O)cc2F)c2ccccc2)c1 (centres undefined)	–	–	9820 nM	> 10000 nM	–	–
N=C(N)c1ccc(O)c(OCC(=O)Nc2ccc(-c3ccccc3S(N)(=O)=O)cc2)c1	–	2.2 nM	2290 nM	> 10000 nM	–	–
N=C(N)c1cccc(OC(C(=O)Nc2ccc(-n3ccc(C(F)(F)F)n3)cc2)c2ccccc2)c1 (centres undefined)	–	170 nM	> 10000 nM	> 10000 nM	–	–
N=C(N)c1cccc(OC(C(=O)Nc2ccc(-n3cnc(Cl)c3Cl)cc2)c2ccccc2)c1 (centres undefined)	–	14 nM	5330 nM	–	–	–
N=C(N)c1cccc(OCCC(=O)Nc2ccc(-c3ccccc3S(N)(=O)=O)cc2)c1	–	6.4 nM	2570 nM	> 10000 nM	–	–
N=C(N)c1cccc(OC(C(=O)Nc2ccc(-c3ccccc3S(N)(=O)=O)cc2)c2ccccc2)c1 (centres undefined)	5%	0.55 nM	1250 nM	> 10000 nM	–	56%
N=C(N)c1cccc(OC(C(=O)Nc2cc(Cl)c(-n3cccc3)cc2Cl)c2ccccc2)c1 (centres undefined)	–	93 nM	8780 nM	4090 nM	–	–
N=C(N)c1cccc(OC(C(=O)Nc2ccc(N3CCOCC3)c(F)c2)c2ccccc2)c1 (centres undefined)	–	4.4 nM	–	–	–	–
N=C(N)c1cccc(OC(C(=O)Nc2ccc(-c3ccccc3S(N)(=O)=O)cc2Br)c2ccccc2)c1 (centres undefined)	–	3.2 nM	4000 nM	8640 nM	–	–
N=C(N)c1cccc(OC(C(=O)Nc2ccc(C(=O)N3CCCC3)cc2Br)c2ccccc2)c1 (centres undefined)	–	0.99 nM	521 nM	> 10000 nM	–	–
N=C(N)c1cccc(OCC(=O)Nc2ccc(-c3ccccc3S(N)(=O)=O)cc2)c1	–	21 nM	3370 nM	> 10000 nM	–	–
CC(C)(C)OC(=O)C1CCCN1C(=O)c1ccc(NC(=O)COc2cccc(C(=N)N)c2)cc1 (centres undefined)	–	2930 nM	6640 nM	> 10000 nM	–	–

More lines, main results first:

bioavailability [1]	IC50 (Coagulation factor X)	IC50 (Serine protease 1)	IC50 (Prothrombin)	SMILES	Inhibition (Oryctolagus cuniculus [2])	Inhibition (Oryctolagus cuniculus [3])
–	> 10000 nM	> 10000 nM	> 10000 nM	CN1CCN(C(=O)c2ccc(NC(=O)COc3cccc(C(=N)N)c3)cc2)CC1	–	–
–	1120 nM	> 10000 nM	> 10000 nM	N=C(N)c1cccc(OCC(=O)Nc2ccc(C(=O)N3CCOCC3)cc2)c1	–	–
–	1190 nM	> 10000 nM	> 10000 nM	N=C(N)c1cccc(OCC(=O)Nc2ccc(C(=O)N3CCCCCC3)cc2)c1	–	–
–	66 nM	2700 nM	> 10000 nM	N=C(N)c1cccc(OCC(=O)Nc2ccc(C(=O)N3CCCC3)cc2)c1	–	–
–	227 nM	2050 nM	> 10000 nM	N=C(N)c1cccc(OCC(=O)Nc2ccc(C(=O)N3CCC3)cc2)c1	–	–
–	–	> 10000 nM	> 10000 nM	N=C(N)c1cccc(OCC(=O)Nc2ccc(C(=O)N3CCCCC3)cc2)c1	–	–
–	> 10000 nM	> 10000 nM	> 10000 nM	N=C(N)c1cccc(OCC(=O)Nc2ccc(C(=O)N3CCCC3C(=O)O)cc2)c1 (centres undefined)	–	–
–	6.3 nM	875 nM	> 10000 nM	N=C(N)c1cccc(OCC(=O)Nc2ccc(C(=O)N3CC=CC3)cc2)c1	–	–
–	0.7 nM	283 nM	> 10000 nM	N=C(N)c1ccc(O)c(OCC(=O)Nc2ccc(C(=O)N3CCCC3)cc2)c1	–	–

From ChEMBL document CHEMBL1133928, “Design and synthesis of glycolic and mandelic acid derivatives as factor Xa inhibitors” (Bioorg Med Chem Lett, 2001)
